Measurements from ChEMBL document CHEMBL1201862, “PubChem BioAssay data set” (2004).
“And” between values parts separate entries of the source, which are not always exact repeats. Identical values can stand only once.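 Five compound concentrations were applied to cells in 96-well plates for 48 hours; endpoints were derived by simple linear interpolation of the resulting dose-response curve. GI50 marks 50% less growth.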 The source made the active and inactive calls. No stated cut-off is given here; in the data, active = GI50 up to about 1.1 µM and inactive = higher.

What was measured:
Experiment in all cases: growth of human tumour cells (NCI), 48 h
HCC 2998 = tested on: HCC 2998
CCRF-CEM = tested on: CCRF-CEM
KM12 = tested on: KM12
OVCAR-3 = tested on: OVCAR-3
SW-620 = tested on: SW-620
SNB-19 = tested on: SNB-19
Hs-578T = tested on: Hs-578T
HT-29 = tested on: HT-29
SK-MEL-28 = tested on: SK-MEL-28
TK-10 = tested on: TK-10
M14 = tested on: M14
OVCAR-5 = tested on: OVCAR-5
MDA-N = tested on: MDA-N
IGROV-1 = tested on: IGROV-1
CAKI-1 = tested on: CAKI-1
COLO 205 = tested on: COLO 205
UACC-257 = tested on: UACC-257
SNB-75 = tested on: SNB-75
PC-3 = tested on: PC-3
ACHN = tested on: ACHN
NCI-H522 = tested on: NCI-H522
BT-549 = tested on: BT-549
Malme-3M = tested on: Malme-3M
SK-MEL-2 = tested on: SK-MEL-2
LOX IMVI = tested on: LOX IMVI
HCT-15 = tested on: HCT-15
HOP-92 = tested on: HOP-92
MDA-MB-231 = tested on: MDA-MB-231
UO-31 = tested on: UO-31
HCT-116 = tested on: HCT-116
OVCAR-4 = tested on: OVCAR-4
EKVX = tested on: EKVX
NCI-H23 = tested on: NCI-H23
MDA-MB-435 = tested on: MDA-MB-435
T47D = tested on: T47D
RPMI-8226 = tested on: RPMI-8226
SR = tested on: SR
A549 = tested on: A549
MOLT-4 = tested on: MOLT-4
HOP-62 = tested on: HOP-62
SF-295 = tested on: SF-295
SK-OV-3 = tested on: SK-OV-3
NCI-H460 = tested on: NCI-H460
NCI-H226 = tested on: NCI-H226
SF-539 = tested on: SF-539
MCF7 = tested on: MCF7
UACC-62 = tested on: UACC-62
SN12C = tested on: SN12C

Compound | GI50 (HCC 2998) | GI50 (KM12) | GI50 (SW-620) | GI50 (SNB-19) | GI50 (Hs-578T) | GI50 (HT-29) | GI50 (OVCAR-5) | GI50 (MDA-N) | GI50 (IGROV-1) | GI50 (CAKI-1) | GI50 (COLO 205) | GI50 (PC-3) | GI50 (NCI-H522) | GI50 (BT-549) | GI50 (Malme-3M) | GI50 (LOX IMVI) | GI50 (MDA-MB-231) | GI50 (UO-31) | GI50 (EKVX) | GI50 (T47D) | other results
Cc1nc2c(Br)cc(Br)cc2c(=O)n1-c1ccccc1NC1OCC(O)C(O)C1O (stereo not drawn) | 33.7 µM (inactive) | 24.7 µM (inactive) | 28.6 µM (inactive) | 40.8 µM (inactive) and 22.9 µM (inactive) | > 25.5 µM (inactive) and 39.7 µM (inactive) | 24.9 µM (inactive) and 15.3 µM (inactive) | 44.2 µM (inactive) and 42.7 µM (inactive) | 33.7 µM (inactive) and 41.4 µM (inactive) | 41.4 µM (inactive) and 21.2 µM (inactive) | 45.2 µM (inactive) and 28.4 µM (inactive) | 18.6 µM (inactive) and 17.6 µM (inactive) | 33.3 µM (inactive) and 46 µM (inactive) | 19.7 µM (inactive) and 17.4 µM (inactive) | 26.5 µM (inactive) and 29.3 µM (inactive) | 28.3 µM (inactive) and 37.8 µM (inactive) | 14.6 µM (inactive) and 21.6 µM (inactive) | 27.2 µM (inactive) and 45.7 µM (inactive) | 42.2 µM (inactive) and 30.5 µM (inactive) | 48.6 µM (inactive) and 39 µM (inactive) | 44 µM (inactive) and 30.5 µM (inactive) | GI50 (CCRF-CEM): 21.5 µM (inactive) and 11.5 µM (inactive); GI50 (OVCAR-3): 24.3 µM (inactive) and 20.9 µM (inactive); GI50 (SK-MEL-28): 69.2 µM (inactive) and 74.3 µM (inactive); GI50 (TK-10): 23.4 µM (inactive) and 40.9 µM (inactive); GI50 (M14): 21.8 µM (inactive) and 32.7 µM (inactive); GI50 (UACC-257): 23.7 µM (inactive) and 44.8 µM (inactive); GI50 (SNB-75): 18.8 µM (inactive) and 33 µM (inactive); GI50 (ACHN): 17.2 µM (inactive) and 32.3 µM (inactive); GI50 (SK-MEL-2): 38.8 µM (inactive) and 34.3 µM (inactive); GI50 (HCT-15): 48.8 µM and 41.1 µM; GI50 (HOP-92): 19.6 µM (inactive) and 35.8 µM (inactive); GI50 (HCT-116): 24.7 µM (inactive) and 16 µM (inactive); GI50 (OVCAR-4): 24.1 µM (inactive) and 39.1 µM (inactive); GI50 (NCI-H23): 20.7 µM (inactive) and 38 µM (inactive); GI50 (MDA-MB-435): 42.1 µM (inactive) and 39.4 µM (inactive)
COc1ccc(-c2c3c(n(C4OC(COC(C)=O)C(OC(C)=O)C(OC(C)=O)C4OC(C)=O)c(=S)c2C#N)CC(C)(C)CC3=O)cc1 (stereo not drawn) | 47.6 µM (inactive) and 61.1 µM (inactive) | 74.8 µM (inactive) | 37.1 µM (inactive) | 97.3 µM (inactive) | 40.4 µM (inactive) and 36.2 µM (inactive) | 33.1 µM (inactive) and 58.2 µM (inactive) | 61 µM (inactive) | 33 µM (inactive) and 65.8 µM (inactive) | > 100 µM (inactive) and 74.5 µM (inactive) | 59.2 µM (inactive) | > 100 µM (inactive) and 50.4 µM (inactive) | 59.6 µM (inactive) and 34.4 µM (inactive) | 43.5 µM (inactive) and 22.6 µM (inactive) | 62.1 µM (inactive) and 32.1 µM (inactive) | > 100 µM (inactive) and 56.2 µM (inactive) | 27.5 µM (inactive) and 29.3 µM (inactive) | 37.9 µM (inactive) and 35.6 µM (inactive) | > 100 µM (inactive) and 55.3 µM (inactive) | 26.6 µM (inactive) | 40.9 µM (inactive) and 64.1 µM (inactive) | GI50 (RPMI-8226): 32.6 µM (inactive) and 26.5 µM (inactive); GI50 (SR): 24.9 µM (inactive) and 37.3 µM (inactive); GI50 (A549): 65.5 µM (inactive); GI50 (MOLT-4): 20.7 µM (inactive) and 27.8 µM (inactive); GI50 (HOP-62): > 100 µM (inactive); GI50 (SF-295): 78 µM (inactive); GI50 (SK-OV-3): 96.2 µM (inactive); GI50 (NCI-H460): > 100 µM (inactive) and 61.4 µM (inactive); GI50 (NCI-H226): 55.5 µM (inactive) and 44.8 µM (inactive); GI50 (SF-539): 35.2 µM (inactive) and 22.8 µM (inactive); GI50 (MCF7): 57.3 µM (inactive) and 28.8 µM (inactive); GI50 (UACC-62): 30.3 µM (inactive) and 33 µM (inactive); GI50 (SN12C): > 100 µM (inactive) and 55.3 µM (inactive)
